Entries after “also recorded” stand apart in the source; their conditions may differ.
What was measured:
Assay type in all cases: cell-based
[1] = tested on: HCT116 colon cancer cells; assay: MTT proliferation assay, HCT116
Protocol: (§1) The effects of test compounds on proliferation of various cancer cells was examined by 3-(4,5-dimethylthiazol-2-yl)-2,5-diphenyltetrazolium bromide (MTT, Sigma) assay in a dose dependent manner. In the MTT assay, colon, liver, cervix, ovary, and breast cancer cell lines were treated with test compounds at various concentrations. Living cancer cells reduce MTT to dark blue MTT formazan that would be measured by absorbance.
(§2) Colon cancer cells, HCT116, DLD-1 and HT29, cervix cancer cells, HeLa and CaSki, ovary cancer cells, SKOV-3, 2774 and OVCAR-3, liver cancer cells, SK-Hep-1, PLCPRF5 and HepG2, and breast cancer cells, ZR75-1 and MDA-MB 231 were seeded at an initial density of 3000 cells per well in 96-well plates. After attachment of cells to the walls of the wells, the medium containing fresh retinoid was treated with various concentrations (0.5 μM, 1 μM, 2.5 μM, 5 μM, 10 μM) for 48 hours. 50 μl of MTT solution (2 mg/ml in PBS) was added to cell culture media. The reaction micture was incubated at 37° C. in a 5% CO2 atmosphere for 4 hours. The supernatant was removed and 150 μl of DMSO was added. The optical density was measured spectrophotometrically at 550 nm. […] For other retinoid derivatives according to the present invention, absorbances were measured by this procedure and IC50 values, concentrations required for 50% growth inhibition, were determined.

[2] = tested on: HT29 colon cancer cells; assay: MTT proliferation assay, HT29
Protocol: as §1, §2

[3] = tested on: HeLa cervix cancer cells; assay: MTT proliferation assay, HeLa; conditions: 48 hours, uterine cancer
Protocol: as §1, §2

[4] = tested on: 2774 ovary cancer cells; assay: MTT proliferation assay, 2774; conditions: 48 hours, ovarian cancer
Protocol: as §1, §2

[5] = tested on: OVCAR-3 ovary cancer cells; assay: MTT proliferation assay, OVCAR-3; conditions: ovarian cancer
Protocol: as §1, §2

[6] = tested on: HepG2 liver cancer cells; assay: MTT proliferation assay, HepG2
Protocol: as §1, §2

[7] = tested on: ZR75-1 breast cancer cells; assay: MTT proliferation assay, ZR75-1
Protocol: as §1, §2

[8] = tested on: HCT116 cells; assay: In vitro matrigel invasion assay, HCT116; conditions: HCT116, 1 μM, 8 hours, matrigel-coated filter
Protocol: Meanwhile, to determine the effect of KCBG60 on the invasion potential of HCT116 cells, in vitro assay was performed. […] After cultivation for a predetermined period of time, the number of cells migrating to lower side of the filter was measured to determin the invasion level (FIG. 15).

[9] = tested on: MCF-7 breast cancer cells; assay: MTT proliferation assay, MCF-7; conditions: 48 hours
[10] = tested on: DLD-1 colon cancer cells; assay: Trypan blue surviving cell count, DLD-1
Source text: Surviving cells, which had not be stained by trypan blue were counted and the results are shown in Table 3 as relative surviving cells (%).

[11] = tested on: MCF-7 breast cancer cells; assay: DNA fragmentation assay (agarose gel), MCF-7; conditions: MCF-7, 2.5, 5.0, 10 μM, 48 hours
Protocol: After treated with each retinoid derivative at various concentrations (2.5, 5.0, 10 μM) for 48 hours, HCT116 or MCF-7 cells were poured in 1 mL of PBS and centrifuged at a rate of 13,000 rpm at 4° C. for 1 min. The resulting cell pellets were resuspended in 700 μl of lysis buffer (500 mM Tris, 100 mM EDTA, 0.5% SDS) containing 17.5 μl of proteinase K (20 mg/ml), and incubated on 55° C. water bath for 3 hours. The lysates were mixed with 700 μl of phenol solution while slowly stirring and centrifuged at 12,000 rpm for 5 min. The supernatants were separated and extracted with phenol once more. The supernatants were mixed with 600 μl of 100% ethanol and 60 μl of 3M NaOAc (pH 7.0) and left at −20° C. for 2 hours. The supernatants were removed by centrifugation at 12,000 rpm for 10 min to obtain pellets. After 70% ethanol washing and drying, DNA pellet was resuspended in 100 μl of TE (Tris-EDTA) buffer and treated with RNase A. The obtained samples were electrophoresed for 2 hours at 75 V on 1.8% agarose gels.

[12] = tested on: MMP-2 mRNA expression; assay: RT-PCR of MMP-2 mRNA in HCT116; conditions: HCT116, 1 μM; for inhibition of MMP-2 mRNA expression: 36 hours
Protocol: Previously, it was shown that the synthetic retinoid derivatives inhibit the transcriptional activity of AP-1. Also, it is well known that MMP (matrix metalloproteinase), a main target gene of AP-1 is involved in metastasis of cancer cells. Therefore, the inhibitive effects of the retinoid derivatives on metastasis of cancer was examined by RT-PCR analysis. Colon cancer HCT116 cells were treated with 1 μM retinoid for 36 hours. RNA was isolated from the cells and mRNA expression levels of MMP-1, -2 and -3 were analyzed by RT-PCR. […] As the control, GAPDH was used and it was confirmed that its expression was not affected by retinoid. Meanwhile, the expression level of MMP-3 was affected weakly by KCBG40, intermediately by KCBG41 but strongly by KCBG10 (FIG. 9).
RNA was isolated from the cells and mRNA expression levels of MMP-1, -2 and -3 were analyzed by RT-PCR (FIG. 14).

[13] = target: T1, RXRα (Homo sapiens, UniProt P19793); assay: CAT reporter assay, RXRα; conditions: 1 μM, control = 1.0, RA = 9-cis RA; for expression level of CAT enzyme, RXRα −: column '−'
T1 construct: expressed in transfected cells
T1 sequence (P19793 1-462): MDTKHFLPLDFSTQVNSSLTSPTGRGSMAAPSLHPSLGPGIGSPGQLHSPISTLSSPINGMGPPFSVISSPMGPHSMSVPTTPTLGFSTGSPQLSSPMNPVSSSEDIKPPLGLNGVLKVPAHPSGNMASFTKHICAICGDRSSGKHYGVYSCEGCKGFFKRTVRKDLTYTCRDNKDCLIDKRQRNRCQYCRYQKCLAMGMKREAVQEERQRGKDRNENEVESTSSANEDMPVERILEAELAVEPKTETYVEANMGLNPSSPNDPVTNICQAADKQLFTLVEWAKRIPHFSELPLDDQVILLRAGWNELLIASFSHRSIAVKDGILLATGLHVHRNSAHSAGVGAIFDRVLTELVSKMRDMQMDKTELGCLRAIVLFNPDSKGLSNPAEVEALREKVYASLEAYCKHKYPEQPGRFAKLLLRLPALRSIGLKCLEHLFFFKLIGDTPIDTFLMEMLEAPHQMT
Source text: As the reporter gene, chloramphenicol acetyltransferase (CAT) with a transcription control site reactive to respective receptors was used.

| Compound | IC50 [4] [µM] | IC50 ([1]; 48 hours) [µM] | IC50 ([2]; 48 hours) [µM] | IC50 [3] [µM] | IC50 ([5]; 48 hours) [µM] | IC50 ([6]; 48 hours) [µM] | IC50 ([7]; 48 hours) [µM] | IC50 [9] [µM] | reduction of the number of invaded cells [8] | relative surviving cells (%) ([10]; DLD-1, 0.5 μM) | relative surviving cells (%) ([10]; DLD-1, 1 μM) | relative surviving cells (%) ([10]; DLD-1, 5 μM) | relative surviving cells (%) ([10]; DLD-1, 10 μM) | DNA ladder (DNA fragmentation) [11] | inhibition of MMP-2 mRNA expression [12] | expression level of CAT enzyme, RXRα + [13] | expression level of CAT enzyme, RXRα − [13] | also measured |
| --- | --- | --- | --- | --- | --- | --- | --- | --- | --- | --- | --- | --- | --- | --- | --- | --- | --- | --- |
| CC1=C(/C=C/C(C)=C/C=C/C(C)=C/C(=O)O)C(C)(C)CCC1 [ATRA, All-trans-retinoic acid, reference compound] | > 100 |  |  |  |  |  |  |  | 40% |  |  |  |  |  |  |  |  | IC50 ([1]; Homo sapiens, HCT-116, 48 hours): 20 µM; IC50 ([2]; Homo sapiens, HT-29, 48 hours): 18 µM; IC50 ([3]; Homo sapiens, HeLa): 5 µM; IC50 ([5]; Homo sapiens, OVCAR-3, 48 hours): > 100 µM; IC50 ([6]; Homo sapiens, HepG2, 48 hours): > 500 µM; IC50 ([7]; Homo sapiens, ZR-75-1, 48 hours): > 500 µM |
| CC1=C(/C=C/C(C)=C/C=C/C(C)=C/C(=O)Nc2ccc(O)cc2)C(C)(C)CCC1 [HPR, (2E,4E,6E,8E)-[3,7-dimethyl-9-(2,6,6-trimethylcyclohex-1-enyl)-nona-2,4,6,8-tetraenoylamino]-4-hydroxyphenylamide] | 30 | 6 to 8 | 8 | 3 | 8 | > 100 | 15 | 7 |  | 94 | 85 | 63 | 28 | did not show any DNA ladder | affected very little | 1.5 | 1.0 |  |
| CCCC(=O)Oc1ccc(NC(=O)/C=C(C)/C=C/C=C(C)/C=C/C2=C(C)CCCC2(C)C)cc1 [KCBG60] |  |  |  |  |  |  |  |  | 50% | 95 | 85 | 60 | 30 |  |  | 1.3 | 0.9 | MMP-2 inhibitory expression level compared to ATRA ([12]; 24 hours): two times higher |
| phenyl butylate |  |  |  |  |  |  |  |  | did not show invasion inhibiting effect | 105 | 103 | 102 | 92 |  |  | 1.2 | 1.1 | effect on expression of MMP-2 ([12]; 24 hours): did not affect expression of MMP-2 at all |

Continued, in another order:

| IC50 [4] [µM] | IC50 ([1]; 48 hours) [µM] | IC50 ([2]; 48 hours) [µM] | IC50 [3] [µM] | IC50 ([5]; 48 hours) [µM] | IC50 ([6]; 48 hours) [µM] | IC50 ([7]; 48 hours) [µM] | IC50 [9] [µM] | Compound | reduction of the number of invaded cells [8] | relative surviving cells (%) ([10]; DLD-1, 0.5 μM) | relative surviving cells (%) ([10]; DLD-1, 1 μM) | relative surviving cells (%) ([10]; DLD-1, 5 μM) | relative surviving cells (%) ([10]; DLD-1, 10 μM) | DNA ladder (DNA fragmentation) [11] | inhibition of MMP-2 mRNA expression [12] | expression level of CAT enzyme, RXRα + [13] | expression level of CAT enzyme, RXRα − [13] | also measured |
| --- | --- | --- | --- | --- | --- | --- | --- | --- | --- | --- | --- | --- | --- | --- | --- | --- | --- | --- |
| 8 | 3 | 6 | 0.5 | 0.8 | > 100 | 2 | 1.3 | CCCC(=O)Oc1cc(O)ccc1NC(=O)/C=C(C)/C=C/C=C(C)/C=C/C1=C(C)CCCC1(C)C [KCBG10, 2.2-[(2E,4E,6E,8E)-3,7-Dimethyl-9-(2,6,6-trimethylcyclohex-1-enyl)-nona-2,4,6,8-tetraenoylamino]-5-hydroxyphenylbutanoate] |  |  |  |  |  | DNA band of the ladder shape caused by DNA fragmentation was well detected; also recorded: at a low concentration showed DNA fragmentation | weakly |  |  |  |
| 2.5 | 1.4 | 1.2 | 3 | 3.7 | > 100 | 4.1 | 5.5 | CCCC(=O)Nc1cc(NC(=O)/C=C(C)/C=C/C=C(C)/C=C/C2=C(C)CCCC2(C)C)ccc1O [KCBG41, (2E,4E,6E,8E)-[3,7-dimethyl-9-(2,6,6-trimethylcyclohex-1-enyl)-nona-2,4,6,8-tetraenoylamino]-(3-butyrylamino-4-hydroxy)phenylamide] |  |  |  |  |  | DNA band of the ladder shape caused by DNA fragmentation was well detected | strongly |  |  |  |
